Values after ≈ are worked out from the molar mass of the structure shown. Values joined by “and” are separate entries in the source; they are usually repeats but may differ in a detail not shown here. Equal values may be shown once. Read-outs that look alike come from different tables or passages of the source. Blank lines part the entries; values can stand above or below the molecule they belong to.
What was measured:
[1] = system: gram positive bacteria; experiment: MIC by broth microdilution (NCCLS), with or without 30% bovine serum (Example 19); format: cell-based
Description: (§1) The compounds were prepared according to the examples above and the methods described in U.S. Patent Application Publication No. 2004/0142883. Individual dalbavancin compounds were purified by HPLC. […] Before dissolution, each sample was analyzed by HPLC and quantified. […] Louis, Mo.), Gentamycin (GE) (Sigma Chemical Co., St. Louis, Mo.), Penicillin G (Pen.G) (Sigma Chemical Co., St. Louis, Mo.), and Amphotericin B (Amph.B) (Sigma Chemical Co., St. Louis, Mo.). The microorganisms used were reference strains obtained from the American Type Culture Collection (ATCC) (Rockville, Md.), SmithKline and French Laboratories (SKF), and the Upjohn Company (UC) (Kalamazoo, Mich.).

[2] = system: gram-negative bacteria; experiment: as above; format: cell-based
Description: as §1

[3] = system: Candida albicans SKF 2270; experiment: as above; format: cell-based; conditions: SKF2270
Description: MICs were determined by the broth microdilution methodology following the standard NCCLS procedure (NCCLS Document M7-A6, Vol. 23, No. 2, “Methods for dilution antimicrobial susceptibility tests for bacteria that grow aerobically.” Approved Guideline. January 2003, which can be herein incorporated by reference in its entirety), with or without 30% adult bovine serum (BS) (PAA Laboratories GmBH, Haidmannweg Pasching Austria), using bacterial innocula at approximately 5×10^5 CFU/ml. The media employed included cation-adjusted Müller Hinton broth (Difco Laboratories, Detroit, Mich.) that was used that was adjusted with CaCl2 and MgCl2 to a final concentration of 20 mg/L and 10 mg/L, respectively. Tests were read following 20-24 hours of incubation at 35° C.

[4] = molecular target: N,N′-diacetyl-Lys-D-Ala-D-Ala; experiment: ITC, 37 °C, [HSA] 0 µM
[5] = molecular target: human serum proteins; experiment: cell-based or functional assay
[6] = molecular target: N,N′-diacetyl-Lys-D-Ala-D-Ala; experiment: ITC, 25 °C, free dalbavancin
[7] = molecular target: N,N′-diacetyl-Lys-D-Ala-D-Ala; experiment: ITC, 25 °C, apparent, 104 µM HSA present
[8] = molecular target: N,N′-diacetyl-Lys-D-Ala-D-Ala; experiment: ITC, 25 °C, apparent, 288 µM HSA present
[9] = molecular target: N,N′-diacetyl-Lys-D-Ala-D-Ala; experiment: ITC, 25 °C, apparent, 430 µM HSA present
[10] = molecular target: N,N′-diacetyl-Lys-D-Ala-D-Ala; experiment: ITC, 25 °C, apparent, 601 µM HSA present
[11] = molecular target: N,N′-diacetyl-Lys-D-Ala-D-Ala; experiment: ITC, 37 °C, apparent, 482 µM HSA present
[12] = system: gram-positive bacteria; experiment: MIC by broth microdilution (NCCLS), IsoB0 and reference compounds; format: cell-based
Description: Müller Hinton broth (Difco Laboratories, Detroit, Mich., USA) adjusted with CaCl2 and MgCl2 to a final concentrations of 20 mg/L and 10 mg/L respectively.
Adult bovine serum (BS) (batch A05123-159 PAA Laboratories GmBH Haidmannweg Pasching Austria).
The microorganisms used are reference standard strains from the American Type Culture Collection (ATCC, Rockville, USA), Smith Kline and French Laboratories (SKF) and the Upjohn Company (UC, Kalamazoo, Mich., USA).
(§2) MICs were determined by the broth microdilution methodology following the standard NCCLS procedure, with or without 30% bovine serum, using bacterial inocula of approximately 5×10^5 CFU/mL. Tests were read after 20-24 h incubation at 35° C.

[13] = In vivo biological activity of IsoB0
[14] = system: gram-negative bacteria; experiment: MIC by broth microdilution (NCCLS), IsoB0 and reference compounds; format: cell-based
Description: as §2

[15] = system: Candida albicans SKF2270; experiment: as above; format: cell-based
[16] = set-up: species or system Sprague-Dawley rats; conditions: rat, in vivo, iv, 20 mg/kg
Description: Mass balance studies were conducted to determine the excretion pattern of dalbavancin following a single intravenous (IV) infusion of dalbavancin in male rats. […] Water and methanol cage washes were also collected.

[17] = molecular target: N,N′-diacetyl-Lys-D-Ala-D-Ala; experiment: ITC, 10 °C, [HSA] 0 µM
[18] = molecular target: N,N′-diacetyl-Lys-D-Ala-D-Ala; experiment: ITC, 25 °C, [HSA] 0 µM
[19] = molecular target: N,N′-diacetyl-Lys-D-Ala-D-Ala; experiment: ITC, 25 °C, 513 µM HSA present
[20] = system: S. aureus; experiment: MIC of study organisms (NCCLS microdilution); format: cell-based; conditions: Staphylococcus aureus
Description: (§3) MICs were determined in MHB by standard NCCLS microdilution techniques. […] All MICs were performed at least in duplicate.

[21] = system: S. pneumoniae; experiment: MIC of study organisms (NCCLS microdilution); format: cell-based; conditions: S. pneumoniae strain 10813
Description: as §3

[22] = E. faecalis ATCC29212 ref. strain
[23] = Enterococcus faecalis, ATCC7080
[24] = S. aureus ATCC29213 ref. strain
[25] = Staphylococcus aureus Smith ATCC19636
[26] = Pseudomonas aeruginosas ATCC 10145

Molecule: Dalbavancin (peptide)
N [4]: 0.82 | degree of binding estimated from MIC difference [5]: 96% | Kd [6]: 3000 nM | N [7]: 1.38 | N [8]: 0.9 | N [9]: 1.24 | N [10]: 0.86 | N [11]: 0.179

Molecule: CNC1C(=O)NC2Cc3ccc(cc3)Oc3cc4cc(c3OC3OC(C(=O)O)C(O)C(O)C3NC(=O)CCCCCCCCC(C)C)Oc3ccc(cc3Cl)C(O)C3NC(=O)C(NC(=O)C4NC(=O)C(NC2=O)c2cc(cc(O)c2Cl)Oc2cc1ccc2O)c1ccc(O)c(c1)-c1c(OC2OC(CO)C(O)C(O)C2O)cc(O)cc1C(C(=O)NCCCN(C)C)NC3=O (stereo not shown) [IsoB0]
MIC ([12]; Bacillus subtilis ATCC6633): ≦0.06 mg/L | MIC [12, 22]: 0.25 µg/mL (≈ 0.138 µM) | MIC [12, 23]: 0.25 µg/mL (≈ 0.138 µM) | MIC [12, 24]: 0.25 µg/mL (≈ 0.138 µM) | MIC ([12]; S. aureus Smith + 30% BS): 16 µg/mL | MIC ([12]; S. epidermidis ATCC12228): 0.125 µg/mL (≈ 0.0688 µM) | MIC ([12]; S. pneumoniae Felton UC41): 0.125 µg/mL (≈ 0.0688 µM) | MIC [12, 25]: 0.5 µg/mL (≈ 0.275 µM) | MIC ([12]; Streptococcus pyogenes SKF13400): 0.06 µg/mL (≈ 0.033 µM) | activity against a panel of gram-positive bacteria ([12]; compared with dalbavancin): very similar to dalbavancin | in vivo biological activity [13]: comparable to that of dalbavancin B0 | MIC ([14]; E. coli ATCC25922 ref. strain): 64 µg/mL (≈ 35.2 µM) | MIC ([14]; Escherichia coli SKF 12140): 64 µg/mL (≈ 35.2 µM) | MIC ([14]; Proteus vulgaris, ATCC881): >64 µg/mL | MIC [14, 26]: >64 µg/mL | MIC [15]: >64 µg/mL

Molecule: CN[C@H]1C(=O)N[C@@H]2Cc3ccc(cc3)Oc3cc4cc(c3O[C@@H]3O[C@H](C(=O)O)[C@@H](O)[C@H](O)[C@H]3NC(=O)CCCCCCCCC(C)C)Oc3ccc(cc3Cl)[C@@H](O)[C@@H]3NC(=O)[C@H](NC(=O)[C@@H]4NC(=O)[C@@H](NC2=O)c2cc(cc(O)c2Cl)Oc2cc1ccc2O)c1ccc(O)c(c1)-c1c(O[C@H]2O[C@H](CO)[C@@H](O)[C@H](O)[C@@H]2O)cc(O)cc1[C@@H](C(=O)NCCCN(C)C)NC3=O [^3H-dalbavancin]
fraction of excreted radioactivity eliminated in feces [16]: ⅓ | fraction of excreted radioactivity eliminated in urine [16]: ⅔

Molecule: Vancomycin hydrochloride (peptide)
Ka [17]: 690000 M⁻¹ | N [17]: 1.1 | Ka [18]: 340000 M⁻¹ and 360000 M⁻¹ | N [18]: 0.91 and 0.97 | Ka [19]: 290000 M⁻¹ | N [19]: 1.05

Molecule: COc1cccc(OC)c1C(=O)N[C@@H]1C(=O)N2[C@@H]1SC(C)(C)[C@@H]2C(=O)O [Methicillin]
MIC ([20]; MRSA, S. aureus strain MRSA): > 8 µg/mL | MIC ([20]; S. aureus strain 25923): 0.12 µg/mL | MIC ([20]; S. aureus strain 31005): 0.12 µg/mL | MIC ([20]; S. aureus strain 33591): > 8 µg/mL | MIC ([20]; S. aureus strain 307109): > 8 µg/mL | MIC ([20]; S. aureus strain Smith): 0.12 µg/mL

Molecule: Penicillin
MIC [21]: 0.008 µg/mL

Further lines, results first:

MIC ([1]; Bacillus subtilis ATCC6633): ≦0.06 mg/L | MIC [1, 22]: 0.125 µg/mL (≈ 0.0688 µM) | MIC [1, 23]: 0.125 µg/mL (≈ 0.0688 µM) | MIC [1, 24]: 0.125 µg/mL (≈ 0.0688 µM) | MIC ([1]; S. aureus Smith + 30% BS): 2 µg/mL | MIC ([1]; S. epidermidis ATCC12228): ≦0.06 mg/L | MIC ([1]; S. pneumoniae Felton UC41): ≦0.06 mg/L | MIC [1, 25]: 0.25 µg/mL (≈ 0.138 µM) | MIC ([1]; Streptococcus pyrogenes SKF 13400): ≦0.06 mg/L | MIC ([2]; E. coli ATCC25922 ref. strain): >64 µg/mL | MIC ([2]; Escherichia coli SKF 12140): >64 µg/mL | MIC ([2]; Proteus vulgaris, ATCC881): >64 µg/mL | MIC [2, 26]: >64 µg/mL | MIC ([3]; Candida albicans): >64 µg/mL
Molecule: CNC1C(=O)NC2Cc3ccc(c(Cl)c3)Oc3cc4cc(c3OC3OC(C(=O)O)C(O)C(O)C3NC(=O)CCCCCCCCC(C)C)Oc3ccc(cc3Cl)C(O)C3NC(=O)C(NC(=O)C4NC(=O)C(NC2=O)c2cc(O)cc(c2)Oc2cc1ccc2O)c1ccc(O)c(c1)-c1c(OC2OC(CO)C(O)C(O)C2O)cc(O)cc1C(C(=O)NCCCN(C)C)NC3=O [Composition B0, ristomycin A aglycone, 5,31-dichloro-38-de(methoxycarbonyl)-7-demethyl-19-deoxy-56-O-(2-deoxy-2-((10-methyl-1-oxoundecyl)amino)-beta-D-glucopyranuronosyl)-38-(((3-(dimethylamino)propyl)amino)-carbonyl)-42-O-alpha-D-mannopyranosyl-N^15-methyl-]

MIC ([1]; ATCC6633, Bacillus subtilis ATCC 6633, read-out: MIC): ≤ 0.03 µg/mL | MIC ([1]; ATCC7080, Enterococcus faecalis ATCC 7080, read-out: MIC): 0.06 µg/mL (≈ 0.0328 µM) | MIC ([1]; ATCC19636, Staphylococcus aureus Smith ATCC 19636, read-out: MIC): 0.125 µg/mL (≈ 0.0683 µM) | MIC ([1]; Enterococcus faecalis, E. faecalis ATCC29212 ref. strain, read-out: MIC): 0.125 µg/mL (≈ 0.0683 µM) | MIC ([1]; Staphylococcus aureus, ATCC29213, S. aureus ATCC 29213 ref. strain, read-out: MIC): 0.125 µg/mL (≈ 0.0683 µM) | MIC ([1]; Staphylococcus aureus, S. aureus Smith + 30% BS, read-out: MIC): 2 µg/mL | MIC ([1]; Staphylococcus epidermidis, ATCC12228, S. epidermidis ATCC 12228, read-out: MIC): ≤ 0.03 µg/mL | MIC ([1]; Streptococcus pneumoniae, S. pneumoniae Felton UC41, read-out: MIC): ≤ 0.03 µg/mL | MIC ([1]; Streptococcus pyrogenes SKF 13400, read-out: MIC): ≤ 0.03 µg/mL | MIC ([2]; ATCC881, Proteus vulgaris ATCC 881, read-out: MIC): 32 µg/mL (≈ 17.5 µM) | MIC ([2]; Escherichia coli SKF 12140, read-out: MIC): 32 µg/mL (≈ 17.5 µM) | MIC ([2]; Escherichia coli, E. coli ATCC25922 ref. strain, read-out: MIC): 32 µg/mL (≈ 17.5 µM) | MIC ([2]; Pseudomonas aeruginosas ATCC 10145, read-out: MIC): 16 µg/mL (≈ 8.74 µM) | MIC ([3]; Candida albicans SKF 2270, read-out: MIC): 32 µg/mL (≈ 17.5 µM)
Molecule: CC(C)CCCCCCCCC(=O)N[C@H]1[C@H](Oc2c3cc4cc2Oc2ccc(cc2Cl)[C@@H](O)[C@@H]2NC(=O)[C@H](NC(=O)[C@@H]4NC(=O)[C@H]4NC(=O)[C@@H](Cc5ccc(cc5)O3)NC(=O)[C@H](N(C)C)c3ccc(O)c(c3)Oc3cc(O)c(Cl)c4c3)c3ccc(O)c(c3)-c3c(O[C@H]4O[C@H](CO)[C@@H](O)[C@H](O)[C@@H]4O)cc(O)cc3[C@@H](C(=O)NCCCN(C)C)NC2=O)O[C@H](C(=O)O)[C@@H](O)[C@@H]1O [Composition B2, N^15,N^15-dimethyl dalbavancin B0]

Reference: patent publication US20170190744A1 (Vicuron Pharmaceuticals, Inc., priority 2015, published 2017)
